Structures are written as SMILES.

These results are taken from article PMC7738869, “A novel STAT3 inhibitor W2014-S regresses human non-small cell lung cancer xenografts and sensitizes EGFR-TKI acquired resistance” (Theranostics, 2021).

Series [1] has as its system PC-9/GR cells. Kind of series: Cell viability assay (CCK-8), PC-9/GR. The class given is cell-based, human. The note with it: 72 h. How it is done:
Cell proliferation was measured using the Cell Counting Kit-8 (CCK-8, B34304, Bimake, USA). A549 (2 × 10^3/100 μL/well), PC-9 (3 × 10^3/100 μL/well) or PC-9/GR cells (3 × 10^3/100 μL/well) were plated into each well of 96-well plates (Costar, USA). […] Then, 10 μL of CCK-8 was added to each well, and cells were incubated for 1-4 h until the color of untreated controls turned to orange. The absorbance (A) was measured by a microplate reader (FLUOstar Omega-ACU, USA) at test and reference wavelengths of 450 nm. The percentage of growth was calculated as Cell viability (%) = [A (Compound +) - A (Blank) ] / [A (Compound -) - A (Blank) ] × 100%. Cell viability meant proliferation of cells. Each experiment was done at least in triplicate, and thrice independently.

For series [2], the system named is A549 cells. Kind of series: Cell apoptosis assay (Annexin V-FITC/PI flow cytometry), A549. It is filed as cell-based, human. The note with it: A549, 1.0 μM, 72 h. Here is the method:
(§1) Briefly, aliquots of 2 × 10^5 cells were seeded into 6-well plates and incubated for 24 h at 37 °C. […] After trypsinization and gently washing cells once with medium, the cells were washed twice with cold PBS. The precipitation was resuspended by 400 μL of 1 × binding buffer, and then resuspended cells were transferred into new 1.5 mL EP tubes. Then 3 μL of Annexin V-FITC and 5 μL of propidium iodide were added to the resuspended cells with further incubation at room temperature for 15 min in the dark. The analysis was done on Guava easyCyte (USA) and FlowJo 7.6 software.

Series [3] concerns PC-9/GR cells. Kind of series: Cell apoptosis assay (Annexin V-FITC/PI flow cytometry), PC-9/GR. It is filed as cell-based, human. The note with it: 72 h. How it is done:
as §1
In general terms: In flow cytometry, cells or beads pass a laser one at a time.

The subject of series [4] is Bcl-2, Bcl-xL and c-Myc. Nature of the series: Western blot of STAT3 downstream genes in A549 and PC-9 cells. The note with it: A549 and PC-9, 0-3 μM, 24 h. The class given is cell-based, human. Here is the method:
(§2) Cells or tumor tissue were lysed with RIPA buffer (Beyotime, Shanghai, China) supplemented with protease inhibitors (Beyotime, Shanghai, China) and phosphatase inhibitors (Bimake, USA). Lysates were denatured by heating for 5 min at 99 °C and loaded on 4-10% SDS-polyacrylamide gel electrophoresis. Then the proteins were transferred to polyvinylidene fluoride (PVDF) membranes (Millipore, USA). The membranes were blocked and probed with primary antibodies and secondary HPR-conjugated antibodies. At last the membranes were detected by chemiluminescence (Tanon, Shanghai, China). For co-immunoprecipitation experiments, 293T cells were plated and grew to about 80% confluency, then co-transfected with plasmids of HA-STAT3 and Flag-STAT3 using Lipofectamine 2000. After 24 h, cells were treated with different concentrations of W2014-S for following 24 h, and stimulated with IL-6 (100 ng/mL) for 1 h. Cells were lysed with IP RIPA buffer (Beyotime, Shanghai, China) supplemented with protease inhibitors (Beyotime, Shanghai, China) and phosphatase inhibitors (Bimake, America), and lysates were cultured with Anti-flag Affinity Gel (B23102, Bimake, USA) overnight at 4 ℃. The gel was washed by PBST for three times and added 1×loading buffer and denatured by heating for 5 min at 99 ℃. Then the proteins were resolved on SDS-PAGE, transferred to PVDF membranes and analysed with immunoblotting.

Series [5] has as its system STAT1 and STAT5. Kind of series: Western blot of STAT1 and STAT5 activation in A549 and PC-9 cells. The class given is cell-based, human. Here is the method:
as §2
On the technique in general: A western blot detects proteins with antibodies after separation by electrophoresis.

Series [6] deals with AKT. Kind of series: Western blot of phosphorylated and total AKT in A549 and PC-9 cells. The class given is cell-based, human. The note with it: A549 and PC-9, 0-3 μM, 24 h. Here is the method:
as §2

The subject of series [7] is STAT3. Nature of the series: STAT3-dependent dual-luciferase reporter assay in A549 cells. The class given is cell-based, human. The note with it: A549, 0, 0.3, 1 μM, 24 h. How it is done: The STAT3-dependent luciferase reporter, pGL3-STAT3, contained seven copies of the STAT3-specific binding sequence ([…]) in the C-reactive protein gene promoter, and drove firefly luciferase expression. The new construct was confirmed by sequencing. For luciferase studies, 293T cells or A549 cells in 96-well plates were transiently co-transfected with the appropriate plasmids (10 ng TKRL as internal control vector for normalizing and 50 ng of pGL3-STAT3) using Lipofectamine 2000 (11668500, Invitrogen, Carlsbad, CA, USA) which was following the manufacturer's protocol. After 24 h, HEK-293T cells were treated with 0-1 μM W2014-S for 24 h, and stimulated with IL-6 (100 ng/mL, PeproTech) for 1 h or EGF (50 ng/mL, PeproTech) for 30 min. Subsequently, cytosolic extracts were prepared for dual-luciferase reporter assay.
(In general: A reporter such as luciferase makes a cellular process visible.)

For series [8], the system named is A549 xenografts. Kind of series: A549 tumor xenografts in nude mice. It is filed as in vivo. Here is the method: (§3) To establish cell xenograft model, nude mice were injected subcutaneously with A549 cells (2×10^6) or PC-9/GR cells (4×10^6). For PDX model, the PDX sample was from The Jackson Laboratory. The model ID is TM00192/LG0567F. For this patient, the primary site is lung, the initial and diagnosis and final diagnosis is lung adenocarcinoma. The stage/grade is AJCC IB/grade 3. […] The sample type is surgical resection. […] The tumor sample were cut into approximately 1 mm^3, and the tissue was pushed under skin of mice by TROCHAR. When tumor volumes reached approximately 100 mm^3, mice were randomly distributed into groups of 7 mice. […] Tumor size was measured every two days by vernier caliper. The average tumor volume in each group was calculated based on the equation for a prolate spheroid (tumor volume = (short-diameter)^2 × large-diameter × π / 6 ) and expressed in mm^3.

Series [9] deals with PDX (TM00192/LG0567F, lung adenocarcinoma). Nature of the series: Lung cancer PDX tumor xenografts in nude mice. It is filed as in vivo. Here is the method:
as §3

Series [10] deals with A549 cells. Kind of series: Transwell cell invasion assay, A549. The note with it: A549, 1 μM.
Protocol: Transwell invasion assays were performed as previously reported [37] using Transwell chamber (Costar, USA). […] Data from triplicates experiments were pooled and plotted as shown.
For series [11], the target named is STAT3-STAT3 dimerization (Homo sapiens, UniProt P40763). Nature of the series: Co-immunoprecipitation of HA-STAT3 and Flag-STAT3 in A549 cells. The class given is cell-based. More on the design: expressed in transfected cells; host or cells: A549. The note with it: A549, 0, 0.3, 1 μM, 24 h. How it is done:
as §2

Where [12] appears, read: gefitinib 2 μM and/or W2014-S 1 μM.

Sequence of STAT3-STAT3 dimerization (P40763 whole entry): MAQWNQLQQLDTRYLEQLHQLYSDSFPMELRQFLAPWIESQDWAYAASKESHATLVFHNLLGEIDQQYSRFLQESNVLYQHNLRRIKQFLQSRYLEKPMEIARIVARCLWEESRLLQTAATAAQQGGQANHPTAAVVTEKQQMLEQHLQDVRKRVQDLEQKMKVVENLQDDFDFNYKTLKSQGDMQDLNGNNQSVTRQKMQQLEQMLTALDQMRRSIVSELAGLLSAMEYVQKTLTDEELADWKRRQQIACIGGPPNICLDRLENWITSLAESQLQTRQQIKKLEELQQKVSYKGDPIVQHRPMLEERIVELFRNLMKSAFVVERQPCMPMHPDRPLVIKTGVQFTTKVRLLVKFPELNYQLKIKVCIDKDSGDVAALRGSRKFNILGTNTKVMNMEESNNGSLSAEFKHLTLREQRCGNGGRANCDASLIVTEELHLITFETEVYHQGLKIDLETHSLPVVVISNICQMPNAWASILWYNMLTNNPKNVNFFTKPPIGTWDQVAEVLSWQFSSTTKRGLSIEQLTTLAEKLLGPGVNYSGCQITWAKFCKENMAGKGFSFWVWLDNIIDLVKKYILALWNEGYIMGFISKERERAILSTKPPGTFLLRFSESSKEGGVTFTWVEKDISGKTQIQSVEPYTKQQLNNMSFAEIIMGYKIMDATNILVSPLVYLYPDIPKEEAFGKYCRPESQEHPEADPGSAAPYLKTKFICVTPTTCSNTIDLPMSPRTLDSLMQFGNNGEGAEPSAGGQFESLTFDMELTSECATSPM

In the case of `C[C@H](Oc1ccc(-c2nc3nc(C4=CCN(C(=O)OC(C)(C)C)CC4)ccc3[nH]2)cc1)c1ccccc1` [W2014-S], the “sensitization of acquired resistance (erlotinib)” value in series [1] (PC-9/GR, with erlotinib) is given as “sensitized acquired resistance”. The “resensitization of PC-9/GR to gefitinib” value in [1] (W2014-S 1 μM, gefitinib 2 μM) was “sufficient to resensitize PC-9/GR to gefitinib”. In addition, the apoptosis result in series [2] is reported as “induced apoptosis”. The “effect on gefitinib-induced apoptosis” value in series [3] (W2014-S 1 μM + gefitinib 2 μM) was “significantly enhanced gefitinib-induced apoptosis”. Besides, the Q1 in series [3] (setting [12]) came to 0.164%. The same compound returned a Q2 in series [3] (setting [12]) of 4.50%. This compound registered a Q3 in series [3] (setting [12]) of 3.47%. In series [3] (setting [12]), the Q4 was found to be 91.9%. Further, the “expression of STAT3 downstream genes Bcl-2, Bcl-xL and c-Myc” value in [4] is “inhibited by W2014-S dose-dependently”. In series [5], the “STAT1 and STAT5 activation” value is “no obvious effect”. Moreover, the “phosphorylation of AKT and total AKT” value in series [6] is reported as “not affected”. In addition, the “STAT3 transcriptional activity (luciferase reporter)” value in [7] is “inhibited”. In addition, the “body weights and signs of toxicity during treatment” value in [8] (A549 xenograft mice, 5 or 15 mg/kg daily, 21 d) is “no significant changes in body weights, or obvious signs of toxicity”; in series [9] (PDX mice, 5 or 15 mg/kg daily, 21 d) it was “no significant changes in body weights, or obvious signs of toxicity”. For the same compound, the “level of pY705-STAT3 in tumor (western blot)” value in series [8] (A549 xenografts) and in series [9] (PDX) was “significantly suppressed the level of pY705-STAT3” each time. Moreover, the growth of xenografts entry in series [8] (A549 xenografts, i.p. 5 or 15 mg/kg daily, 21 d) is on record as “significantly inhibited growth”; in [9] (PDX, i.p. 5 or 15 mg/kg daily, 21 d) it was “significantly inhibited growth”. Further, the “expression of Ki-67 in tumor (IHC)” value in [8] (A549 xenografts, vs vehicle) is reported as “significantly reduced”; in series [9] (PDX, vs vehicle), “significantly reduced”. Further, the cell invasion result in series [10] is reported as “suppressed”. The “dimerization of HA-STAT3 and Flag-STAT3” value in [11] is on record as “inhibited by W2014-S in a dosage-dependent manner”.
